Experimental data reported in patent publication US20180339016A1 (priority 2015, published 2018).
Read-outs that look alike come from different tables or passages of the source.

Key:
E. coli ATCC 25922 = experiment: Antibiotic interaction assay (Wimley), 2/3 broth microdilution: MIC alone, MIC of combination, FICI; assay type: cell-based; conditions: for MIC: Escherichia coli; for MIC of combination (μM): antibiotic: concentration of labelled drug in combination with KL-L9P; for FICI of drug with KL-L9P / FICIKL-L9P / FICIantibiotic: labelled drug + KL-L9P; for MIC of combination (μM): antibiotic (colistin): colistin concentration in combination with labelled peptide; for MIC of peptide: peptide alone
Description: Synergy was evaluated by an antibiotic interaction assay (Wimley, 2015) Using the method of Wimley (BBA, 2015, v. 1848(1), pp. 8-15), synergy between the membrane-activating peptide and an antibiotic was measured by an FICI value (FIG. 17). […] Thus, to accurately examine synergy, a ⅔ dilution method which observes MIC at denser concentration intervals is advantageous over a ½ dilution method in statistical terms. […] In the same manner, the MIC of an antibiotic or repositioning drug (second line) is measured. In the third line, the two compounds are mixed after putting half amount each, and the MIC thereof is measured.
A broth microdilution technique (⅔ dilution) was used together with an MH broth. E. coli treated with an antibiotic and the peptide was incubated in a 37° C. incubator for 18 hours.
(§1) To measure the synergy between the membrane-activating peptides and the repositioning drug, a 10× compound was prepared, and then serially diluted ⅔-fold with distilled water. An MH broth (900 μl) was added to and mixed with the 10× compound (100 μl), and then 200 μL of the mixture was taken and added to a 96-well plate. E. coli cultured for one day was adjusted to 0.5 MCF using MCFarland, and diluted 10-fold, and then 10 μl of the dilution was added to each well of the plate (5×10^5 CFU/mL). After addition of the bacterial cells, plate was incubated at 37° C. for 18 hours, and then the OD value at UV-Vis (600 nm) was measured. Cell viability (%)=(OD600 of sample−OD600 of negative control)/(OD600 of positive control−OD600 of negative control)×100.

[1] = test system: Escherichia coli (ATCC 25922); conditions: peptide alone; peptide concentration required to inhibit growth by 20% (so in the source)
Description: The N-terminus of the peptides were acetylated and the C-terminus was amidated. The kinked structure can rapidly reduce the alpha-helical content, thereby greatly reducing the toxicity of the peptide against host cells. In addition, because of the potential to show specificity for the Gram-negative bacterial membrane, Pro-mutants were prepared by site-directed mutagenesis. Using the prepared peptides, their MIC for the Gram-negative bacterium E. coli and the Gram-positive bacterium S. aureus and their hemolytic activity for host cells were examined (Table 1).
as §1

[2] = ATCC25922, 18 h, drug alone, <20% growth of positive control, read-out: MIC of antibiotic
[3] = labelled peptide + colistin + linezolid
[4] = peptide concentration in combination with colistin
[5] = three compounds: labelled peptide + colistin + linezolid

For `Oc1ccc(C=Cc2cc(O)cc(O)c2)cc1` [resveratrol], the MIC (E. coli ATCC 25922; [2]) was 1770 µM, the “MIC of combination (μM): antibiotic” value (E. coli ATCC 25922) was 246.91 µM and the “FICI of drug with KL-L9P” value (E. coli ATCC 25922) was 0.25. For the same compound, the FICIKL-L9P (E. coli ATCC 25922) was 0.11 and the FICIantibiotic (E. coli ATCC 25922) was 0.14.
`CCC(C)(C)C(=O)O[C@H]1C[C@@H](C)C=C2C=C[C@H](C)[C@H](CC[C@@H]3C[C@@H](O)CC(=O)O3)[C@H]21` [simvastatin] was tested, and the MIC (E. coli ATCC 25922; ATCC25922, 18 h, Tables 19-23, read-out: MIC (μM) against E. coli ATCC, 1 compound alone) was > 500 µM, the MIC (E. coli ATCC 25922; [2]) was > 500 µM and the MIC (E. coli ATCC 25922; ATCC25922, simvastatin alone, read-out: MIC of simvastatin) was 750 µM. For the same compound, the “MIC (μM) against E. coli ATCC, combination of 3 compounds” value (E. coli ATCC 25922; KL-L9P + colistin + simvastatin, concentration of labelled component) was 33 µM, the “MIC (μM) against E. coli ATCC, combination of two compounds” value (E. coli ATCC 25922; KL-L9P + simvastatin, concentration of labelled component) was 53 µM and the “MIC (μM) against E. coli ATCC, combination of two compounds” value (E. coli ATCC 25922; colistin + simvastatin, concentration of labelled component) was 71 µM. For the same compound, the “MIC of combination (μM): antibiotic” value (E. coli ATCC 25922) was 52.47 µM, the “FICI of drug with KL-L9P” value (E. coli ATCC 25922) was 0.18 and the FICIKL-L9P (E. coli ATCC 25922) was 0.11. The FICIantibiotic (E. coli ATCC 25922) was 0.07.
For `CN(C)[C@@H]1C(=O)C(C(N)=O)=C(O)[C@@]2(O)C(=O)C3=C(O)c4c(O)cccc4[C@@](C)(O)[C@H]3C[C@@H]12` [tetracyclin], the “synergy with KL-L9P” value (E. coli ATCC 25922) was “not synergistic”.
KLAKLAKKPLKLAK [KLA-L9P] was tested, and the “MIC [μM] Against E. coli” value [1] was > 200 µM.
With KLLKLAKKPLKLLK [KL-L6AL9P] the “MIC [μM] Against E. coli” value [1] was 89 µM.
In the case of KLLKLLCKLCKLLK [7, 10 kink], the “MIC [μM] Against E. coli” value [1] is reported as 1.1 µM, the “MIC of combination (μM): antibiotic (colistin)” value (E. coli ATCC 25922) is reported as 0.081 µM and the “FICI of peptide with colistin” value (E. coli ATCC 25922; labelled peptide + colistin) is reported as 0.89. For the same compound, the FICIPeptide (E. coli ATCC 25922; labelled peptide + colistin) was 0.58, the “FICIcolistin / FICIantibiotic” value (E. coli ATCC 25922; labelled peptide + colistin) was 0.31 and the “FICI of peptide with colistin and linezolid” value (E. coli ATCC 25922; [3]) was 1.1. For the same compound, the FICIPeptide (E. coli ATCC 25922; [3]) was 0.37, the FICIcolistin (E. coli ATCC 25922; [3]) was 0.33 and the FICIlinezolid (E. coli ATCC 25922; [3]) was 0.37. The “MIC of peptide” value (E. coli ATCC 25922) was 1.1 µM, the “MIC of combination (μM): peptide” value (E. coli ATCC 25922; [4]) was 0.63 µM and the “MIC of combination (μM): colistin” value (E. coli ATCC 25922; [5]) was 0.081 µM. The “MIC of combination (μM): linezolid” value (E. coli ATCC 25922; [5]) was 22 µM and the “MIC of combination (μM): peptide” value (E. coli ATCC 25922; [5]) was 0.44 µM.
With KLLKLLKCLLKCLK [8, 12 kink] the “MIC [μM] Against E. coli” value [1] was 1.1 µM, the “MIC of combination (μM): antibiotic (colistin)” value (E. coli ATCC 25922) was 0.065 µM and the “FICI of peptide with colistin” value (E. coli ATCC 25922; labelled peptide + colistin) was 0.86. For the same compound, the FICIPeptide (E. coli ATCC 25922; labelled peptide + colistin) was 0.56, the “FICIcolistin / FICIantibiotic” value (E. coli ATCC 25922; labelled peptide + colistin) was 0.30 and the “FICI of peptide with colistin and linezolid” value (E. coli ATCC 25922; [3]) was 1.1. It also gave an FICIPeptide (E. coli ATCC 25922; [3]) of 0.42, an FICIcolistin (E. coli ATCC 25922; [3]) of 0.29 and an FICIlinezolid (E. coli ATCC 25922; [3]) of 0.37. The “MIC of peptide” value (E. coli ATCC 25922) was 1.1 µM, the “MIC of combination (μM): peptide” value (E. coli ATCC 25922; [4]) was 0.59 µM and the “MIC of combination (μM): colistin” value (E. coli ATCC 25922; [5]) was 0.065 µM. The “MIC of combination (μM): linezolid” value (E. coli ATCC 25922; [5]) was 22 µM and the “MIC of combination (μM): peptide” value (E. coli ATCC 25922; [5]) was 0.44 µM.
KLLKLLKKELKLLK [KL L9E] was tested, and the “MIC [μM] Against E. coli” value [1] was 5 µM.
With KLLKLLKKGLKLLK [KL L9G] the “MIC [μM] Against E. coli” value [1] was 1.25 µM.
With KLLKLLKKNLKLLK [KL L9N] the “MIC [μM] Against E. coli” value [1] was 2.5 µM.
KLLKLLKKQLKLLK [KL L9Q] was tested, and the “MIC [μM] Against E. coli” value [1] was 1.25 µM.
KLLKLLKKSLKLLK [KL L9S] was tested, and the “MIC [μM] Against E. coli” value [1] was 1.25 µM.
In the case of Mtx- KLLKLLKKPLKLLK [Mtx-KL-L9P], the “MIC [μM] Against E. coli” value [1] is reported as 5.0 µM.
In the case of Mtx- KLLKLPKKLLKLLK [Mtx-KL-L6P], the “MIC [μM] Against E. coli” value [1] is reported as 5.0 µM.
In the case of Mtx- LKKLLKLPKKLLKL [Mtx-LK-L8P], the “MIC [μM] Against E. coli” value [1] is reported as 5.0 µM.
